# In patent US20090035394A1, “USE OF DNA-PK INHIBITION TO SENSITISE ATM DEFICIENT CANCERS TO DNA-DAMAGING CANCER THERAPIES” (priority 2005, published 2009):
# “Also recorded” adds a separate entry of the source.
# What was measured:
# Format in all cases: cell-based, human
# pEBS7 (ATM-null) cells [1] = test: Chemopotentiation, sulforhodamine B growth assay in 96 well plates; settings: for % survival / Avg (absorbance at 564 nm): pEBS7
# Description: (§1) The A-T fibroblast AT221JE-T cells (pEBS7, herein referred to as ATM-null cells) and the trans-complemented ATM+/+ (pEBS7-YZ5, herein referred to as ATM-competent cells) were grown in DMEM+20% FBS PSG and 100 ug/ml hygromycin. These cells are immortalised fibroblasts from an A-T patient which were transfected with pEBS7-YZ5 vector coding for full length ATM and the hygromycin resistance marker or pEBS7 vector, coding for the hygromycin resistance marker only. (Ziv Y et al (1997) Oncogene 15, 159-67)
# (§2) Following a 4-hour incubation to allow cell adherence, 5 μl DNA-PKcS inhibitor KU-0060648 (final concentration 0.5 μM) or DMSO/PBS equivalent was added. After a further 1 hour incubation, 5 μl of chemotherapeutic drug was added per well (see table 1). Drugs were removed after 16 hours and 150 μl fresh medium added per well. After 24h, one plate for each cell line was fixed and stained to account for background differences between the lines. Five days after seeding, the medium was aspirated from the wells of the remaining assay plates and 100 μl ice cold 10% TCA added for 30 minutes at 4° C. The wells were then washed four times with tap water and 50 μl 0.4% sulforhodamine B in 1% acetic acid added per well. After 15 minutes incubation at room temperature, excess stain was washed from the wells with 1% acetic acid. 100 μl […] pH6.8 was then added per well, the plates shaken to resuspend the stain and the absorbance at 564 nm determined.
# [2] = test system: pEBS7-YZ5 (ATM-competent, ATM+/+) cells; test: as above; settings: for % survival / Avg (absorbance at 564 nm): pEBS7-YZ
# Description: as §1, §2
# pEBS7 (ATM-null) cells [3] = test: Radio-potentiation, colony formation after ionising radiation; settings: for % survival: ATM-null pEBS7
# Description: as §1
# (§3) To show radio-potentiation, 2×10^5 cells per well were seeded into 6 well cluster plates. One plate was used for each dose of irradiation. After allowing the cells to adhere for 4 hours, the cells were dosed with a final concentration of 0.5 μM of the DNA-PKcs inhibitor KU-0060648 or equivalent DMSO/PBS control. After further incubation for 1 hour, the cells were irradiated with 0, 0.5, 1, 2 and 4 Grays. After 16 hours incubation, the cells were washed with 1 ml PBS and 500 μl trypsin EDTA added for 5 minutes at 37° C. 1.5 ml fresh medium was then added and the cell density in the untreated (0 Gy) wells determined. All subsequent calculations for seeding densities were performed according to this cell count. Cells were then replated into 2 mls fresh medium in 6 well cluster plates at the appropriate cell densities. After 6 days' incubation, the medium was removed by aspiration and cell colonies stained using 400 μl per well Giemsa stain for 20 minutes. Excess stain was washed from the plates with tap water and the plates left to air-dry. The number of colonies per well was then counted using Colcount software.
# [4] = test system: pEBS7-YZ5 (ATM-competent, ATM+/+) cells; test: as above; settings: for % survival: ATM-competent pEBS7-YZ
# Description: as §1, §3
# [5] = KU-0060648 0.5 μM + doxorubicin 0
# [6] = KU-0060648 0.5 μM + doxorubicin 0.01 (unit not given)
# [7] = KU-0060648 0.5 μM + doxorubicin 0.025 (unit not given)
# [8] = KU-0060648 0.5 μM + doxorubicin 0.05 (unit not given)
# [9] = KU-0060648 0.5 μM + doxorubicin 0.075 (unit not given)
# [10] = KU-0060648 0.5 μM + doxorubicin 0.1 (unit not given)
# [11] = KU-0060648 0.5 μM + doxorubicin 0.25 (unit not given)
# [12] = KU-0060648 0.5 μM + doxorubicin 0.5 (unit not given)
# [13] = KU-0060648 0.5 μM + doxorubicin 0.75 (unit not given)
# [14] = KU-0060648 0.5 μM + doxorubicin 1 (unit not given)
# [15] = KU-0060648 0.5 μM + doxorubicin 2.5 (unit not given)
# [16] = KU-0060648 0.5 μM + doxorubicin 5 (unit not given)
# [17] = KU-0060648 0.5 μM + etoposide 0
# [18] = KU-0060648 0.5 μM + etoposide 0.01 (μg/ml per Table 1)
# [19] = KU-0060648 0.5 μM + etoposide 0.025 (μg/ml per Table 1)
# [20] = KU-0060648 0.5 μM + etoposide 0.05 (μg/ml per Table 1)
# [21] = KU-0060648 0.5 μM + etoposide 0.075 (μg/ml per Table 1)
# [22] = KU-0060648 0.5 μM + etoposide 0.1 (μg/ml per Table 1)
# [23] = KU-0060648 0.5 μM + etoposide 0.25 (μg/ml per Table 1)
# [24] = KU-0060648 0.5 μM + etoposide 0.5 (μg/ml per Table 1)
# [25] = KU-0060648 0.5 μM + etoposide 0.75 (μg/ml per Table 1)
# [26] = KU-0060648 0.5 μM + etoposide 1 (μg/ml per Table 1)
# [27] = KU-0060648 0.5 μM + etoposide 2.5 (μg/ml per Table 1)
# [28] = KU-0060648 0.5 μM + etoposide 5 (μg/ml per Table 1)
compound,measurement,setting,value
"CCN1CCN(CC(=O)Nc2ccc(-c3cccc4c(=O)cc(N5CCOCC5)oc34)c3sc4ccccc4c23)CC1 [KU-0060648, 2-(4-Ethyl-piperazin-1-yl)-N-[4-(2-morpholin-4-yl-4-oxo-4H-1-benzopyran-8-yl)-dibenzothiophen-1-yl]-acetamide]",potentiation of etoposide,pEBS7 (ATM-null) cells [1]; ATM-null cells,increased sensitisation; also recorded: significantly potentiated
same,potentiation of the effect of doxorubicin,pEBS7 (ATM-null) cells [1]; ATM-null cells,increased sensitivity; also recorded: significantly potentiate
same,% survival,pEBS7 (ATM-null) cells [1]; [5],100%
same,Avg (absorbance at 564 nm),pEBS7 (ATM-null) cells [1]; [5],1.42
same,% survival,pEBS7 (ATM-null) cells [1]; [6],107.9%
same,Avg (absorbance at 564 nm),pEBS7 (ATM-null) cells [1]; [6],1.53
same,% survival,pEBS7 (ATM-null) cells [1]; [7],87.0%
same,Avg (absorbance at 564 nm),pEBS7 (ATM-null) cells [1]; [7],1.23
same,% survival,pEBS7 (ATM-null) cells [1]; [8],81.3%
same,Avg (absorbance at 564 nm),pEBS7 (ATM-null) cells [1]; [8],1.15
same,% survival,pEBS7 (ATM-null) cells [1]; [9],82.3%
same,Avg (absorbance at 564 nm),pEBS7 (ATM-null) cells [1]; [9],1.17
same,% survival,pEBS7 (ATM-null) cells [1]; [10],88.7%
same,Avg (absorbance at 564 nm),pEBS7 (ATM-null) cells [1]; [10],1.26
same,% survival,pEBS7 (ATM-null) cells [1]; [11],22.1%
same,Avg (absorbance at 564 nm),pEBS7 (ATM-null) cells [1]; [11],0.31
same,% survival,pEBS7 (ATM-null) cells [1]; [12],6.2%
same,Avg (absorbance at 564 nm),pEBS7 (ATM-null) cells [1]; [12],0.09
same,% survival,pEBS7 (ATM-null) cells [1]; [13],0.6%
same,Avg (absorbance at 564 nm),pEBS7 (ATM-null) cells [1]; [13],0.01
same,% survival,pEBS7 (ATM-null) cells [1]; [14],−2.2%
same,Avg (absorbance at 564 nm),pEBS7 (ATM-null) cells [1]; [14],−0.03
same,% survival,pEBS7 (ATM-null) cells [1]; [15],−2.0%
same,Avg (absorbance at 564 nm),pEBS7 (ATM-null) cells [1]; [15],−0.03
same,% survival,pEBS7 (ATM-null) cells [1]; [16],−0.8%
same,Avg (absorbance at 564 nm),pEBS7 (ATM-null) cells [1]; [16],−0.01
same,% survival,pEBS7 (ATM-null) cells [1]; [17],100%
same,Avg (absorbance at 564 nm),pEBS7 (ATM-null) cells [1]; [17],1.61
same,% survival,pEBS7 (ATM-null) cells [1]; [18],84.7%
same,Avg (absorbance at 564 nm),pEBS7 (ATM-null) cells [1]; [18],1.36
same,% survival,pEBS7 (ATM-null) cells [1]; [19],72.7%
same,Avg (absorbance at 564 nm),pEBS7 (ATM-null) cells [1]; [19],1.17
same,% survival,pEBS7 (ATM-null) cells [1]; [20],72.7%
same,Avg (absorbance at 564 nm),pEBS7 (ATM-null) cells [1]; [20],1.17
same,% survival,pEBS7 (ATM-null) cells [1]; [21],62.3%
same,Avg (absorbance at 564 nm),pEBS7 (ATM-null) cells [1]; [21],1.00
same,% survival,pEBS7 (ATM-null) cells [1]; [22],27.9%
same,Avg (absorbance at 564 nm),pEBS7 (ATM-null) cells [1]; [22],0.45
same,% survival,pEBS7 (ATM-null) cells [1]; [23],13.6%
same,Avg (absorbance at 564 nm),pEBS7 (ATM-null) cells [1]; [23],0.22
same,% survival,pEBS7 (ATM-null) cells [1]; [24],7.9%
same,Avg (absorbance at 564 nm),pEBS7 (ATM-null) cells [1]; [24],0.13
same,% survival,pEBS7 (ATM-null) cells [1]; [25],1.2%
same,Avg (absorbance at 564 nm),pEBS7 (ATM-null) cells [1]; [25],0.02
same,% survival,pEBS7 (ATM-null) cells [1]; [26],−0.4%
same,Avg (absorbance at 564 nm),pEBS7 (ATM-null) cells [1]; [26],−0.01
same,% survival,pEBS7 (ATM-null) cells [1]; [27],−1.5%
same,Avg (absorbance at 564 nm),pEBS7 (ATM-null) cells [1]; [27],−0.02
same,% survival,pEBS7 (ATM-null) cells [1]; [28],−1.7%
same,Avg (absorbance at 564 nm),pEBS7 (ATM-null) cells [1]; [28],−0.03
same,potentiation of etoposide,[2]; ATM-competent cells,not
same,potentiation of the effect of doxorubicin,[2]; ATM-competent cells,not
same,% survival,[2]; [5],100%
same,Avg (absorbance at 564 nm),[2]; [5],1.62
same,% survival,[2]; [6],92.3%
same,Avg (absorbance at 564 nm),[2]; [6],1.50
same,% survival,[2]; [7],96.1%
same,Avg (absorbance at 564 nm),[2]; [7],1.56
same,% survival,[2]; [8],102.9%
same,Avg (absorbance at 564 nm),[2]; [8],1.67
same,% survival,[2]; [9],94.1%
same,Avg (absorbance at 564 nm),[2]; [9],1.53
same,% survival,[2]; [10],98.5%
same,Avg (absorbance at 564 nm),[2]; [10],1.60
same,% survival,[2]; [11],80.4%
same,Avg (absorbance at 564 nm),[2]; [11],1.30
same,% survival,[2]; [12],36.6%
same,Avg (absorbance at 564 nm),[2]; [12],0.59
same,% survival,[2]; [13],23.4%
same,Avg (absorbance at 564 nm),[2]; [13],0.38
same,% survival,[2]; [14],1.1%
same,Avg (absorbance at 564 nm),[2]; [14],0.02
same,% survival,[2]; [15],−2.1%
same,Avg (absorbance at 564 nm),[2]; [15],−0.03
same,% survival,[2]; [16],−1.9%
same,Avg (absorbance at 564 nm),[2]; [16],−0.03
same,% survival,[2]; [17],100%
same,Avg (absorbance at 564 nm),[2]; [17],1.79
same,% survival,[2]; [18],88.8%
same,Avg (absorbance at 564 nm),[2]; [18],1.59
same,% survival,[2]; [19],84.9%
same,Avg (absorbance at 564 nm),[2]; [19],1.52
same,% survival,[2]; [20],87.2%
same,Avg (absorbance at 564 nm),[2]; [20],1.56
same,% survival,[2]; [21],86.1%
same,Avg (absorbance at 564 nm),[2]; [21],1.54
same,% survival,[2]; [22],88.9%
same,Avg (absorbance at 564 nm),[2]; [22],1.59
same,% survival,[2]; [23],102.7%
same,Avg (absorbance at 564 nm),[2]; [23],1.84
same,% survival,[2]; [24],55.0%
same,Avg (absorbance at 564 nm),[2]; [24],0.99
same,% survival,[2]; [25],27.6%
same,Avg (absorbance at 564 nm),[2]; [25],0.49
same,% survival,[2]; [26],4.5%
same,Avg (absorbance at 564 nm),[2]; [26],0.08
same,% survival,[2]; [27],5.7%
same,Avg (absorbance at 564 nm),[2]; [27],0.10
same,% survival,[2]; [28],8.6%
same,Avg (absorbance at 564 nm),[2]; [28],0.15
same,potentiation of the effect of irradiation,pEBS7 (ATM-null) cells [3]; ATM-null cells,increased sensitivity; also recorded: significantly potentiate
same,% survival,pEBS7 (ATM-null) cells [3]; KU-0060648 0.5 μM + IR 0 Gy,100.0%
same,% survival,pEBS7 (ATM-null) cells [3]; KU-0060648 0.5 μM + IR 0.5 Gy,15.8%
same,% survival,pEBS7 (ATM-null) cells [3]; KU-0060648 0.5 μM + IR 1 Gy,3.8%
same,% survival,pEBS7 (ATM-null) cells [3]; KU-0060648 0.5 μM + IR 2 Gy,1.3%
same,% survival,pEBS7 (ATM-null) cells [3]; KU-0060648 0.5 μM + IR 4 Gy,0.3%
same,2Gy DMR (dose modification ratio),"pEBS7 (ATM-null) cells [3]; single 2 Gy without / with KU-0060648 (0.5 μM), pEBS7 (ATM-null)",5.7
same,potentiation of the effect of irradiation,[4]; ATM-competent cells,not
same,% survival,[4]; KU-0060648 0.5 μM + IR 0 Gy,100.0%
same,% survival,[4]; KU-0060648 0.5 μM + IR 0.5 Gy,39.3%
same,% survival,[4]; KU-0060648 0.5 μM + IR 1 Gy,13.5%
same,% survival,[4]; KU-0060648 0.5 μM + IR 2 Gy,6.2%
same,% survival,[4]; KU-0060648 0.5 μM + IR 4 Gy,1.7%
same,2Gy DMR (dose modification ratio),"[4]; single 2 Gy without / with KU-0060648 (0.5 μM), pEBS7-YZ (ATM-competent)",2.0
